Experimental data: US6017962A, “Method of depletion of methionine in plasma and solid tumors and uses thereof” (Board of Regents, The University of Texas System, priority 1997, dated 2000)
Like-named read-outs stand apart in the source and are kept apart here.

Key:
[1] = Plasma methionine and thiols after diet, methionine precursor and methioninase; type: in vivo, nude mice; conditions: met^- hcy^- chl^- diet, 8 h after precursor 50 mg/kg ip, no methioninase
Procedure: The methionine peak is marked with an asterik.
FIG. 7A: homocysteine thiolactone; FIG. 7B: homocysteine thiolactone+methioninase; FIG. 7C: homocystine; and FIG. 7D: homocystin+methioninase. All animals were killed 6 hours after the injection of the methionine precursor.
^1 Levels of total thiols in circulation 8 hours after injection (ip)
of met precursor and 6 hours after treatment with methioninase. Mean of 3
determinations ± SD. MET precursor was 50 mg/kg; methioninase
(abbreviated METH.) was 1000k U/kg.

SW-40 = experiment: Cytotoxicity of BCNU; type: cell-based, human; conditions: for IC50: Homo sapiens, SW-40 (mer^-), 1 h BCNU, 4 days
Procedure: (§1) The cytotoxicity of BCNU on cultured cells in MET^+ HCY^+ and MET^- HCY^+ was measured by a modification of the method of Branch et. al. (1993) as follows: methionine-dependent cells were seeded and cultured in MET^+ HCY^- in 35 mm petri dishes until they were nearly confluent. The cells were then transferred in MET^- HCY^+ and cultured for an additional 4 to 6 days at which time cell numbers were reduced due to cell death and inhibition of mitosis. Dead cells were removed and medium was replaced on a daily basis. Following this period in MET^- HCY^+ medium, remaining live cells were washed with PBS and then treated with various concentrations of BCNU in PBS for 1 hour at 37° C. while they were still attached. Subsequently, the BCNU was removed, replaced with MET^+ HCY^- medium and cultures were incubated for an additional 4 days at 37° C. in 6% CO2. At that time cells were trypsinized and counted using a Coulter-Counter (Coulter Electronics, Hialeah Fla.). The concentration of the drug that halves the growth rate of the tumor cells (IC50), was determined from plots of BCNU concentrations versus the percent change in cell numbers as compared to untreated controls within a four day interval from treatment (Jackson, 1992). The IC50 of BCNU on methionine-dependent cells cultured in MET^+ HCY^- or methionine independent cells cultured in either media was also determined by the same method.

U-87 = experiment: Cytotoxicity of BCNU; type: cell-based; conditions: Homo sapiens, U-87 MG, U-87 (mer^-), 1 h BCNU, 4 days
Procedure: as §1

NIH-3T3 = experiment: Cytotoxicity of BCNU; type: cell-based; conditions: Mus musculus, NIH3T3, 1 h BCNU, 4 days
Procedure: as §1

D-341 = experiment: Cytotoxicity of BCNU; type: cell-based; conditions: Homo sapiens, 1 h BCNU, 4 days
Procedure: as §1

Daoy [2] = experiment: Cytotoxicity of BCNU; type: cell-based; conditions: Homo sapiens
Procedure: as §1

H-1623 = experiment: Cytotoxicity of BCNU; type: cell-based; conditions: Homo sapiens, 1 h BCNU, 4 days
Procedure: as §1

U-138 = experiment: Cytotoxicity of BCNU; type: cell-based; conditions: Homo sapiens, 1 h BCNU, 4 days
Procedure: as §1

H-1944 = experiment: Cytotoxicity of BCNU; type: cell-based; conditions: Homo sapiens, 1 h BCNU, 4 days
Procedure: as §1

[3] = test system: Methionine-dependent, mer^+ tumor cells; experiment: Cytotoxicity of BCNU (summary); type: cell-based; conditions: Homo sapiens
Procedure: as §1

[4] = test system: MET-independent or mer^- tumor cell lines and normal cells; experiment: Cytotoxicity of BCNU (summary); type: cell-based; conditions: MET^- HCY^+ versus MET^+ HCY^-
Procedure: as §1

Daoy [5] = conditions: 48 hrs from repletion following 10 days in HCY
MGMT [6] = conditions: Daoy; 48 hrs from repletion following 10 days in HCY
Procedure: Detaching cells ascertained to be dead by trypan blue exclusion were removed by changing the medium every 48 hours. Cells were then either trypsinized and reseeded in the same medium or washed with PBS and supplied with the methionine-HCY^+ medium. Due to extensive death in this medium, it was necessary to remove detaching dead cells on a daily basis. Cells from both media were harvested at time intervals indicated and used to measure cell cycle status and MGMT activity. Cells from either cultures (5×10^7) were also harvested, washed with PBS and immediately frozen as a source of protein, DNA and RNA. All cells collected were live (>95%) as determined by trypan blue exclusion.
The [^3 H]DNA substrate for measurements of MGMT activity was synthesized as follows: One mCi ethanolic solution of N-[^3 H]methyl-N-nitrosourea (MNU) having specific activity 18.8 Ci/mmol (Amersham) was concentrated to 0.2 ml with a N2 stream and mixed with 1 ml of DNA solution (5 mg) in 0.02 M 2-amino-2-methyl-1,3-propanediol at pH 10. […]
The [^3 H]DNA contained 29.8 μCi of radioactivity (alkylation efficiency 3%) which was distributed as 3-methyladenine 3.5%, 7-MeG 79.6%, 1-methyladenine 0.6%, O^6 -MeG 9.0% and other adducts 7.3%. The specific activities of 7-MeG and O^6 -MeG were calculated to be 15.8±0.8 and 16.5±0.5 Ci/mmol respectively. […]

MGMT positive tumors = conditions: prior depletion of MGMT; Dolan et al., 1993; Schold et al., 1996; cited from earlier work
MGMT [7] = conditions: some tumor cell lines; von Wronski et al., 1994; cited from earlier work
[8] = MET^+ HCY^- culture, read-out: IC50 (MET)
[9] = MET^- HCY^+ culture, read-out: IC50 (HCY)

N[C@@H](CCSSCC[C@H](N)C(=O)O)C(=O)O [homocystine]
CYS [1]: 100 ± 4 µM
GSH [1]: 56 ± 8 µM
HCY [1]: 17 ± 2 µM
MET [1]: 6 ± 2 µM

O=NN(CCCl)C(=O)NCCCl [BCNU, 1,3-bis (2-chloroethyl)-1-nitrosourea]
IC50 (SW-40; [8]): 10 µM
IC50 (SW-40; [9]): 15 µM
resistance to BCNU upon methionine depletion (SW-40; SWB-40, mer^-, methionine-dependent): not affected
IC50 (U-87; [8]): 15 µM
IC50 (U-87; [9]): 15 µM
IC50 (NIH-3T3; NIH-3T3, control mer+, methionine independent, MET^+ HCY^- culture, read-out: IC50 (MET)): 35 µM
IC50 (NIH-3T3; NIH-3T3, MET^- HCY^+ culture, read-out: IC50 (HCY)): 40 µM
IC50 (D-341; D341, MET^+ HCY^- culture, read-out: IC50 (MET)): 65 µM
IC50 (D-341; D341, MET^- HCY^+ culture, read-out: IC50 (HCY)): 10 µM
IC50 (Daoy [2]; MET^+ HCY^- culture, 1 h BCNU, counted after 4 days, read-out: IC50 (MET)): 45 µM
IC50 (Daoy [2]; cultured in MET^- HCY^+ 4 days before 1 h BCNU, read-out: IC50 (HCY)): ~5 µM
IC50 (H-1623; NCI-H1623, MET^+ HCY^- culture, read-out: IC50 (MET)): 90 µM
IC50 (H-1623; NCI-H1623, MET^- HCY^+ culture, read-out: IC50 (HCY)): 10 µM
IC50 (U-138; [8]): 50 µM
IC50 (U-138; [9]): 10 µM
IC50 (H-1944; NCI-H1944, MET^+ HCY^- culture, read-out: IC50 (MET)): 65 µM
IC50 (H-1944; NCI-H1944, MET^- HCY^+ culture, read-out: IC50 (HCY)): 10 µM
IC50 ([3]; cultured in MET^+ HCY^-): 45 to 90 µM
IC50 ([3]; cultured in MET^- HCY^+): 5 to 10 µM
sensitivity to BCNU [4]: unaffected

CSCC[C@H](N)C(=O)O [methionine]
doubling time after repletion of methionine (Daoy [5]): 22 h
recovery of MGMT activity (MGMT [6]): 65 % of the base line

Nc1nc(OCc2ccccc2)c2[nH]cnc2n1 [O^6 -benzylguanine]
increase in the efficacy of alkylating drugs such as BCNU (MGMT positive tumors): Significant increase

NC1CCSC1=O (centres unmarked) [homocysteine thiolactone]
CYS [1]: 100 ± 13 µM
GSH [1]: 81 µM
HCY [1]: 20 ± 3 µM
MET [1]: 12 ± 3 µM

Nc1ncn([C@@H]2O[C@H](CO)[C@@H](O)[C@H]2O)c(=O)n1 [5-azacytidine]
increase of the MGMT activity (MGMT [7]): substantial increase
